In patent publication US7074789B2, “Kinase inhibitors” (Amgen Inc., priority 1999, dated 2006):

Columns and labels:
Format in all cases: biochemical
[1] = biological target: T1, EGFR (Homo sapiens, UniProt P00533); assay: Kinase inhibition assay (33P transfer), EGFR; conditions: Table 2, kinase inhibition class; for IC50: read-out: EGFR-1
T1 construct: Kinases are expressed as either kinase domains or full length constructs; made in house
In short: (§1)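 Steps: coat wells with poly(Glu,Tyr) 4:1 or poly(Arg,Ser) 3:1; add purified kinase, [33P]ATP and inhibitor; incubate; wash with 0.5% phosphoric acid; add liquid scintillant; count. IC50 corresponds to half-maximal reduction of bound 33P.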

[2] = biological target: T2, c-Met (Homo sapiens, UniProt P08581); assay: Kinase inhibition assay (33P transfer), c-Met; conditions: Table 2, kinase inhibition class; for IC50: read-out: Met-1
T2 construct: Kinases are expressed as either kinase domains or full length constructs; made in house
In short: as §1

[3] = biological target: T3, Lck (Homo sapiens, UniProt P06239); assay: Kinase inhibition assay (33P transfer), Lck; conditions: Table 3; for IC50: read-out: Lck-1
T3 construct: Kinases are expressed as either kinase domains or full length constructs; made in house
In short: (§2)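 Each kinase, expressed as a GST- or polyHis-tagged domain or full-length protein, phosphorylated plate-attached poly(Glu,Tyr) 4:1 or poly(Arg,Ser) 3:1 using 33P-ATP. Bound radioactivity was measured by scintillation after a 0.5% phosphoric acid wash.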

[4] = biological target: T4, AKT (Homo sapiens, UniProt Q9Y243); assay: Kinase inhibition assay (33P transfer), AKT; conditions: Table 2, kinase inhibition class; for IC50: read-out: AKT3-1
T4 construct: Kinases are expressed as either kinase domains or full length constructs; made in house
In short: as §2

[5] = biological target: T5, Itk (Homo sapiens, UniProt Q08881); assay: Kinase inhibition assay (33P transfer), Itk; conditions: Table 3; for IC50: read-out: Itk-1
T5 construct: Kinases are expressed as either kinase domains or full length constructs; made in house
T5 sequence (Q08881 1-620): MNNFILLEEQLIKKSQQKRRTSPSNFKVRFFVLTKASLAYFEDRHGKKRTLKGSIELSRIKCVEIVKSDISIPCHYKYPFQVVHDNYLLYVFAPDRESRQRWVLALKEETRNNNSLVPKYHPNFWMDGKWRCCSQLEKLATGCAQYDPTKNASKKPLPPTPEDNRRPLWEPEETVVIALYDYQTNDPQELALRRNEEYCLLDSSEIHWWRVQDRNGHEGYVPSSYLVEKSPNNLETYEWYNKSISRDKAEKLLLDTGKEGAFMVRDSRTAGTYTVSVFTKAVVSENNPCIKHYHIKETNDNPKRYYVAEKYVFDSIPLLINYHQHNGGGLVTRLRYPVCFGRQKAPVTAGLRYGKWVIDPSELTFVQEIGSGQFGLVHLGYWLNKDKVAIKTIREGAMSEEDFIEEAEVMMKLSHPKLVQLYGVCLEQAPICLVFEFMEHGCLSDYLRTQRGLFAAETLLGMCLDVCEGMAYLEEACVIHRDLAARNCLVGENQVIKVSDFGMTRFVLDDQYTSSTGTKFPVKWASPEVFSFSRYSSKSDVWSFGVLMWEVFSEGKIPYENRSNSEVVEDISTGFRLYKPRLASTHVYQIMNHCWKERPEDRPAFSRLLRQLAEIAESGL
In short: as §1

[6] = biological target: T6, Kdr (Homo sapiens, UniProt P35968); assay: Kinase inhibition assay (33P transfer), Kdr; conditions: Table 3; for IC50: read-out: KDR-1
T6 construct: Kinases are expressed as either kinase domains or full length constructs; made in house
In short: as §2

[7] = biological target: T7, EPHB4 (Homo sapiens, UniProt P54760); assay: Kinase inhibition assay (33P transfer), EPHB4; conditions: for IC50: read-out: EPHB4-1
T7 construct: Kinases are expressed as either kinase domains or full length constructs; made in house
T7 sequence (P54760 16-987): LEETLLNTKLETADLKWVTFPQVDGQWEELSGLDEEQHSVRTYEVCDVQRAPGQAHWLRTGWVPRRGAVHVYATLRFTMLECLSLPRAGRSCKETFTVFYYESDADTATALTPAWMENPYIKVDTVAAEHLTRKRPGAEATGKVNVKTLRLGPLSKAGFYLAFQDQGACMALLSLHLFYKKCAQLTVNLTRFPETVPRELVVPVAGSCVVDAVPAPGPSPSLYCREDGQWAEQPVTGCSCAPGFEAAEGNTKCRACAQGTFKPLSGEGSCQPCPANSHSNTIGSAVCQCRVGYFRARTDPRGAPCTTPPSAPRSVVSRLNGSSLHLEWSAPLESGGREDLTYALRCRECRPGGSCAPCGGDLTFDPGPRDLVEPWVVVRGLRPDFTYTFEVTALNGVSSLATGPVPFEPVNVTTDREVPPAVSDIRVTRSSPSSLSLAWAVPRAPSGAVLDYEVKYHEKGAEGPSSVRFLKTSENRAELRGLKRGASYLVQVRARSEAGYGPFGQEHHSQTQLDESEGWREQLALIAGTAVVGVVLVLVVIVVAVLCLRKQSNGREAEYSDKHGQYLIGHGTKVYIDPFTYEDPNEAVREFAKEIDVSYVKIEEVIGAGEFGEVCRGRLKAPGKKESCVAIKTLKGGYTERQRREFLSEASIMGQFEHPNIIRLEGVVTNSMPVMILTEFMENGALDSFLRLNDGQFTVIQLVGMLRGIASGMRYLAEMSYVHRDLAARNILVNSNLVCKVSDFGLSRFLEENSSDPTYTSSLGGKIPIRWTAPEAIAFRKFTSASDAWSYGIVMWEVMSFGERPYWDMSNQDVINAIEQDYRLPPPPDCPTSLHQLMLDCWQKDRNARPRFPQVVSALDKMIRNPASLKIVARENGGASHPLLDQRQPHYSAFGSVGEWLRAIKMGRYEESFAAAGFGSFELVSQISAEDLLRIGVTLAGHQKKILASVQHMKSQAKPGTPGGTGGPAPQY

[8] = biological target: T8, IGFR-1 (Homo sapiens, UniProt P08069); assay: Kinase inhibition assay (33P transfer), IGFR-1; conditions: Table 2, kinase inhibition class
T8 construct: Kinases are expressed as either kinase domains or full length constructs; made in house

[9] = biological target: T9, Zap-70 (Homo sapiens, UniProt P43403); assay: Kinase inhibition assay (33P transfer), Zap-70; conditions: Table 3; for IC50: read-out: Zap-1
T9 construct: Kinases are expressed as either kinase domains or full length constructs; made in house
T9 sequence (P43403 1-619): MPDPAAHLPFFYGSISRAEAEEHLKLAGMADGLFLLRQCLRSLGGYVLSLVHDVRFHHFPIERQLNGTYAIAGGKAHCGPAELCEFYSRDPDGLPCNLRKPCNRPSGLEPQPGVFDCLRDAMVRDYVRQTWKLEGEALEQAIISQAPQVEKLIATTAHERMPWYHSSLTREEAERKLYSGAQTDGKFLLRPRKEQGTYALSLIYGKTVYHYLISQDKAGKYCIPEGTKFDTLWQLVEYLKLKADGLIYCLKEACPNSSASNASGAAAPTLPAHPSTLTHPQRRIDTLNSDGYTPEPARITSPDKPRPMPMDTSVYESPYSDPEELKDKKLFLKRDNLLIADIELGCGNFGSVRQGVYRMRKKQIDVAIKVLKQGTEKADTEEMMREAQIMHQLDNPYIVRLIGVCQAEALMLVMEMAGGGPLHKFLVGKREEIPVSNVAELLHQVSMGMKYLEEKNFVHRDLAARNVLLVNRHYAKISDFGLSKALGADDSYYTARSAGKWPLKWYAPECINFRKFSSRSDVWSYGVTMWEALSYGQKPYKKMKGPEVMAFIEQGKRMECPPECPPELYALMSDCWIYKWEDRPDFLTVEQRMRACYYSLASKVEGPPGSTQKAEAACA
In short: as §2

T2 sequence (P08581 25-1390): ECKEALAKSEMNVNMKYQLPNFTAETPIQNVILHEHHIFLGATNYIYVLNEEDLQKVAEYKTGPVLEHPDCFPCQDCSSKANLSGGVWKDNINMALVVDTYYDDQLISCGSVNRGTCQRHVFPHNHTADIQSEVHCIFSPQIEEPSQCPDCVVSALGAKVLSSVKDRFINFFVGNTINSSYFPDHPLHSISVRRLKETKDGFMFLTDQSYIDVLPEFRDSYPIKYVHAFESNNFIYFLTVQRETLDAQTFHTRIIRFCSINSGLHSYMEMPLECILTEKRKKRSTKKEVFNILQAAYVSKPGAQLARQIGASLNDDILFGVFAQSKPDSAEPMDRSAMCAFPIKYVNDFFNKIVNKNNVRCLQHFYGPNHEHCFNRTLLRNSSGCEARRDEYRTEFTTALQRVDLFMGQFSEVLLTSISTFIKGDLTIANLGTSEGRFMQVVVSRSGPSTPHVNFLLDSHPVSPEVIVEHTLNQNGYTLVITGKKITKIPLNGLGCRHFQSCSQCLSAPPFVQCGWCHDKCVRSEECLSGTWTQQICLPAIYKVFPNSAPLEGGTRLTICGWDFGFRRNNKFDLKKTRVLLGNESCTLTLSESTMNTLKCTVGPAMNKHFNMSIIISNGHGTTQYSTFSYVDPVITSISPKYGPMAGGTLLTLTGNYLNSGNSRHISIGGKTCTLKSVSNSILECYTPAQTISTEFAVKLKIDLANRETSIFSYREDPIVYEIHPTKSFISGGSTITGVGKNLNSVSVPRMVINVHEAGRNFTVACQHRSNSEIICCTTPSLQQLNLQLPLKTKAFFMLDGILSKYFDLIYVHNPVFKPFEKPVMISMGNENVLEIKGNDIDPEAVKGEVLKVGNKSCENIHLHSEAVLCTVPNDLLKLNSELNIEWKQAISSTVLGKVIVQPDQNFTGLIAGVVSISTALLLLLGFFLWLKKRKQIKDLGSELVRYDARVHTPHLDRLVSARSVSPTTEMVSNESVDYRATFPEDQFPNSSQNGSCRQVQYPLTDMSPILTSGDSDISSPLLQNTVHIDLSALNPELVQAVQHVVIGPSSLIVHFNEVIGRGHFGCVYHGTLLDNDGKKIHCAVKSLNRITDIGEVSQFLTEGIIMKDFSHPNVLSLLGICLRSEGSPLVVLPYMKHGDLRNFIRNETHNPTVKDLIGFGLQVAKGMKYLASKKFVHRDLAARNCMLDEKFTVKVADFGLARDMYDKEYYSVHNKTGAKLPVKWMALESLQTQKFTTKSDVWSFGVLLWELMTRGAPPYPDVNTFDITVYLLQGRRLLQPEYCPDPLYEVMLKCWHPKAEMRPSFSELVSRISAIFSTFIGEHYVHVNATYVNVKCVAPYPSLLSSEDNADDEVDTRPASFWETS
T1 sequence (P00533 25-1210, species assumed): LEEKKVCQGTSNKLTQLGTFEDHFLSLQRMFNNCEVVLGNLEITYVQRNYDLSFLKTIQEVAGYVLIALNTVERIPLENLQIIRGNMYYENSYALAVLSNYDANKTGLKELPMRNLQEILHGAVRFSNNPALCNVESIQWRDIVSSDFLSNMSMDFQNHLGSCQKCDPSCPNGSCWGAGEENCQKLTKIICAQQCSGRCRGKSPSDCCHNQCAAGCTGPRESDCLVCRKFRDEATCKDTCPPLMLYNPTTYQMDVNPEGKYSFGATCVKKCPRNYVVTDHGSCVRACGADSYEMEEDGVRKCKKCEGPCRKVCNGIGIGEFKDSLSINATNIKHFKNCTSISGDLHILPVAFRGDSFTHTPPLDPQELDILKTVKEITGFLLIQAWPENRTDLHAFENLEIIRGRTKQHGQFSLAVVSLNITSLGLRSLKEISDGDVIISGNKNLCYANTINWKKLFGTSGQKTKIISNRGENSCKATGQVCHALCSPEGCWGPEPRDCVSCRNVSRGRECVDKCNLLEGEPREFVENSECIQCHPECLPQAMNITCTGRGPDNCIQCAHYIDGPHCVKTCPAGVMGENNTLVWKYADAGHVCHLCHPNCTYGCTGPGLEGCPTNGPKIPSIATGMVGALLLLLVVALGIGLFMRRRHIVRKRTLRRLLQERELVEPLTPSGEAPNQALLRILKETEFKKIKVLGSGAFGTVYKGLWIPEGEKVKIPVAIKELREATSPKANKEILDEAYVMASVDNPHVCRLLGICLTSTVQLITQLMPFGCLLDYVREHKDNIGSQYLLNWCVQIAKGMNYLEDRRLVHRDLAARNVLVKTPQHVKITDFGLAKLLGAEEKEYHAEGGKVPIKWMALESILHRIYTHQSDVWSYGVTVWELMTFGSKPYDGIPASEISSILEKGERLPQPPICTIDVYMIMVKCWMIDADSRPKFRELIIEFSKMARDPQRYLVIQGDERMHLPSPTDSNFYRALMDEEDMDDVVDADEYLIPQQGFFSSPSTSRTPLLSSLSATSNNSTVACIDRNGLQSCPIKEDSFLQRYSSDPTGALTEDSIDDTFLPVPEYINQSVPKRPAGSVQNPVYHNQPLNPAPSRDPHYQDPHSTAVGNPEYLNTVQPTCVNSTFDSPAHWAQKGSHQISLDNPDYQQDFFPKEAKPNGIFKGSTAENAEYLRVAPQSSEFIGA
T3 sequence (P06239 whole entry, species assumed, the tested form may be a part): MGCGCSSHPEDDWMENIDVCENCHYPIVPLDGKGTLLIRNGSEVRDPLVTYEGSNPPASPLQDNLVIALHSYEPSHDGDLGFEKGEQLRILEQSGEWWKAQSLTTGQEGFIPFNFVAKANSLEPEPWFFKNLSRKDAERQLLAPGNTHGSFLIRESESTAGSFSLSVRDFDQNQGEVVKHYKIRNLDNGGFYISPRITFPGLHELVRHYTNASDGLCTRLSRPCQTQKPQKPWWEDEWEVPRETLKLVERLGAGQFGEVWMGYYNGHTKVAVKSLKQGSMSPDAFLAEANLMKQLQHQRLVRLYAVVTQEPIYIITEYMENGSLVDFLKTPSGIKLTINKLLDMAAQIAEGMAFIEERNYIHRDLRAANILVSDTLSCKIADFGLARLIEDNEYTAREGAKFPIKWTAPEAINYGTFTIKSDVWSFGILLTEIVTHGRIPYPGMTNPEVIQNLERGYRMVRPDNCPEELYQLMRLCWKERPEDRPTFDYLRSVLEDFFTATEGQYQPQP
T4 sequence (Q9Y243 whole entry, the tested form may be a part): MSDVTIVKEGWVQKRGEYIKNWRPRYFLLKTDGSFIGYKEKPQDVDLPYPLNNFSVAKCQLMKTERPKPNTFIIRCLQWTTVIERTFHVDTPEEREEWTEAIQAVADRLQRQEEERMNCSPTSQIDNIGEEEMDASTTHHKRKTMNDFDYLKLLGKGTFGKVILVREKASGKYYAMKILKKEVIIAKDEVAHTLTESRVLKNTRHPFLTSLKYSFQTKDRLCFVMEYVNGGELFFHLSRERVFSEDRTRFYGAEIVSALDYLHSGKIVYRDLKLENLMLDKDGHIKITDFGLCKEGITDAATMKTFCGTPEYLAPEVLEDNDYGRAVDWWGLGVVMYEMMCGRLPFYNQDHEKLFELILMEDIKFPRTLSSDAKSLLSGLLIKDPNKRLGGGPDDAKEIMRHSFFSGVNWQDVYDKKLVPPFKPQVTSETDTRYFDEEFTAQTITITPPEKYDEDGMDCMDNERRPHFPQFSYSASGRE
T8 sequence (P08069 31-1367): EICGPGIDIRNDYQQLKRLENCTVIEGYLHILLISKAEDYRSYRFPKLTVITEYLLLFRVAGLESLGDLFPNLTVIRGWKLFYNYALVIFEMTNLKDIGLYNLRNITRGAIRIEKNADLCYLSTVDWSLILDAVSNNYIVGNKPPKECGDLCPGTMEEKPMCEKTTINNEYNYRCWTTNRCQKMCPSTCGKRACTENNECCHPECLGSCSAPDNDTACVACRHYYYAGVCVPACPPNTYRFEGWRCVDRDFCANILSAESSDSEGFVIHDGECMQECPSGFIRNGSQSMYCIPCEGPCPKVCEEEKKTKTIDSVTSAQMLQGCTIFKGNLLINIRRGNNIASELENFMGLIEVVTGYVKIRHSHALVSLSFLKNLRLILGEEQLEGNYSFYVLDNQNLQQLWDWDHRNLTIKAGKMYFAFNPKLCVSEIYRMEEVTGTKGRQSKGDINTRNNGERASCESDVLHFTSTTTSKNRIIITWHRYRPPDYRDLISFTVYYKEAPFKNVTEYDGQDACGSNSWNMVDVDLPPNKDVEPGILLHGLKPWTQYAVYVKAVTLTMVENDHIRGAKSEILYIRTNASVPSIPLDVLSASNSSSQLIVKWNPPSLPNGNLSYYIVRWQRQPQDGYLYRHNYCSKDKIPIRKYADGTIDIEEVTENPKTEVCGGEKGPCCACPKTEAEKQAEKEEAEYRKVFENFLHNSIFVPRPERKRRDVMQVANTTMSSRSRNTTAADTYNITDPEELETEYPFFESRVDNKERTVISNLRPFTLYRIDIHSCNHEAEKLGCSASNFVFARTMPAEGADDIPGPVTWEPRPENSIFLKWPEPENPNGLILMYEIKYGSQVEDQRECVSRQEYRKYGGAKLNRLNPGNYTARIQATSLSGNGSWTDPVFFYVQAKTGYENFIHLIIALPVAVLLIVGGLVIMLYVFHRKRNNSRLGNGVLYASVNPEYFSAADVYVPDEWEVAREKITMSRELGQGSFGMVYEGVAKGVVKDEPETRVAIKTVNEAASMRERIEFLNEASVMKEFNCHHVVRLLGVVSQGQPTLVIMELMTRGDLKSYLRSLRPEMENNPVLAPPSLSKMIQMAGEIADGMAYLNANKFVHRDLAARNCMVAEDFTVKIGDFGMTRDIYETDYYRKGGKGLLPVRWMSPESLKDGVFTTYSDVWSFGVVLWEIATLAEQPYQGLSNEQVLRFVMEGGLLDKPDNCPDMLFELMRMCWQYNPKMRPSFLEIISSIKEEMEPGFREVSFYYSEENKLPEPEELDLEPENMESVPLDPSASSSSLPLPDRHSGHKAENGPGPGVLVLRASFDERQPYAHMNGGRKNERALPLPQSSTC

IC50 [1] [µM] | IC50 [2] [µM] | IC50 [3] [µM] | IC50 [4] [µM] | IC50 [5] [µM] | IC50 [6] [µM] | IC50 [7] [µM] | IC50 [8] [µM] | IC50 [9] [µM] | Structure (SMILES) | EGFR-1 [1] | Met-1 [2] | Lck-1 [3] | AKT3-1 [4] | Itk-1 [5] | KDR-1 [6] | EPHB4-1 [7] | IGFR-1 [8] | Zap-1 [9]
 |  |  |  |  |  |  |  |  | COc1cc(NC(=O)Nc2ncnc(-c3ccncc3)n2)cc(OC)c1OC [Compound 1118] | B (B>0.4 and <2.4 ug/mL) | E (E>4.5 ug/mL) | E (E>4.5 ug/mL) | E (E>4.5 ug/mL) | E (E>4.5 ug/mL) | E (E>4.5 ug/mL) | E (E>4.5 ug/mL) | E (E>4.5 ug/mL) | E (E>4.5 ug/mL)
> 9.1 | 7.08 to 9.1 | 7.08 to 9.1 | > 9.1 | > 9.1 | 4.85 to 7.08 | 0.809 to 4.85 | > 9.1 | > 9.1 | COc1cc(Nc2ncnc(-n3c(Nc4ccc(C#N)cc4)nc4ccccc43)n2)cc(OC)c1OC [Compound 381] |  |  |  |  |  |  |  |  | 
> 9.79 | > 9.79 | > 9.79 | > 9.79 | > 9.79 | > 9.79 | > 9.79 | > 9.79 | > 9.79 | COc1cc(Nc2ncnc(Nc3cccc(OCc4ccccc4)c3)n2)cc(OC)c1OC [Compound 73] |  |  |  |  |  |  |  |  | 
> 10.3 | 8.04 to 10.3 | > 10.3 | > 10.3 | > 10.3 | 0.919 to 5.51 | 0.919 to 5.51 | 0.919 to 5.51 | > 10.3 | COC(=O)c1cc(Nc2ncnc(Nc3cc(-c4ccco4)n[nH]3)n2)cc(C(=O)OC)c1 [Compound 343] |  |  |  |  |  |  |  |  | 
> 11.2 | 5.96 to 8.7 | 8.7 to 11.2 | > 11.2 | > 11.2 | 0.994 to 5.96 | 0.994 to 5.96 | 5.96 to 8.7 | > 11.2 | COc1cc(Nc2ncnc(-n3cc(C#N)c4ccccc43)n2)cc(OC)c1OC [Compound 332] |  |  |  |  |  |  |  |  | 
